In US9801880B2, “Use of kinase inhibitors” (BerGenBio AS, priority 2013, dated 2017):
pIC50: −log10 of the molar value. Values joined by “and” are separate entries in the source; they are usually repeats but may differ in a detail not shown here. Equal values may be shown once.

Assays:
[1] = system: BaF3/T315I cells; test: Subcutaneous BaF3/T315I tumor model; format: in vivo; conditions: 25 (or 50) mg/kg twice per day via gavage; NSG mice
Description: 6- to 8-week-old male NSG mice were implanted subcutaneously with 1×10^7 BaF3/wt-BCR-ABL or 1×10^7 BaF3/T315I cells per mouse into the right flank. Five days after implantation mice were randomized into groups with a mean volume of approximately 100 mm^3. […] Tumor volume was measured every 2-3 days. Animals were sacrificed at day 12 and tumors embedded for histology.

[2] = target: T1, c-Kit (V560G) (Homo sapiens, UniProt P10721, V560G); test: KinaseProfiler kinase activity assay; format: biochemical
T1 construct: purchased EMD Millipore Corp. (KinaseProfiler service)
Description: KinaseProfiler™ assays (EMD Millipore Corp. Billerica, Mass., USA) are radioligand binding assays with purified or partially-purified human kinases. Most of the KinaseProfiler™ assays are conducted in 20 mM MOPS, 1 mM EDTA, 0.01% Brij-35, 5% Glycerol, 0.1% b-mercaptoethanol, 1 mg/mL BSA. The assay involves the transfer of ^32P from γ-^32P-ATP to the target peptide, followed by washing and trapping of the labeled peptide on a filter. The concentration of γ-^32P-ATP used was at the established Km for ATP.

[3] = target: Stk10 (Homo sapiens, UniProt O94804); test: KinaseProfiler kinase activity assay; format: biochemical; design: purchased EMD Millipore Corp. (KinaseProfiler service); conditions: Stk10 (LOK); ATP at Km
Description: (§1) A summary is provided below.

[4] = target: Flt1 (Homo sapiens, UniProt P17948); test: KinaseProfiler kinase activity assay; format: biochemical; design: purchased EMD Millipore Corp. (KinaseProfiler service); conditions: ATP at Km
Description: as §1

[5] = target: Ret (Homo sapiens, UniProt P07949); test: KinaseProfiler kinase activity assay; format: biochemical; design: purchased EMD Millipore Corp. (KinaseProfiler service); conditions: ATP at Km
Description: as §1

[6] = target: Ret (V804M) (Homo sapiens, UniProt P07949, V804M); test: KinaseProfiler kinase activity assay; format: biochemical; design: purchased EMD Millipore Corp. (KinaseProfiler service); conditions: ATP at Km
Description: as §1

[7] = target: Flt3 (D835Y) (Homo sapiens, UniProt P36888, D835Y); test: KinaseProfiler kinase activity assay; format: biochemical; design: purchased EMD Millipore Corp. (KinaseProfiler service); conditions: ATP at Km
Description: as §1

[8] = target: Wee1 (Homo sapiens, UniProt P30291); test: KinaseProfiler kinase activity assay; format: biochemical; design: purchased EMD Millipore Corp. (KinaseProfiler service); conditions: ATP at Km
Description: as §1

[9] = target: Yes (Homo sapiens, UniProt P07947); test: KinaseProfiler kinase activity assay; format: biochemical; design: purchased EMD Millipore Corp. (KinaseProfiler service); conditions: ATP at Km
Description: as §1

[10] = target: Flt4 (Homo sapiens, UniProt P35916); test: KinaseProfiler kinase activity assay; format: biochemical; design: purchased EMD Millipore Corp. (KinaseProfiler service); conditions: ATP at Km
Description: as §1

[11] = target: Flt3 (Homo sapiens, UniProt P36888); test: KinaseProfiler kinase activity assay; format: biochemical; design: purchased EMD Millipore Corp. (KinaseProfiler service); conditions: Flt3 wild-type; ATP at Km
Description: as §1

[12] = target: Ret (V804L) (Homo sapiens, UniProt P07949, V804L); test: KinaseProfiler kinase activity assay; format: biochemical; design: purchased EMD Millipore Corp. (KinaseProfiler service); conditions: ATP at Km
Description: as §1

[13] = target: TEK (Homo sapiens, UniProt Q02763); test: KinaseProfiler kinase activity assay; format: biochemical; design: purchased EMD Millipore Corp. (KinaseProfiler service); conditions: ATP at Km
Description: as §1

[14] = system: Ba/F3 cells (WT, FLT3 WT, FLT3 ITD, FLT3 D835Y); test: WST-1 and 3H-Thymidine incorporation cell proliferation assays, all Ba/F3 lines; format: cell-based, Murine; conditions: by 3 μM; regardless of cell line
Description: Murine pro-B lymphocyte line Ba/F3 wild type (Ba/F3 WT), and Ba/F3 lines stably transduced with expression vectors that encoded wild-type human FLT3 (Ba/F3 FLT3 WT cells) or human FLT3 containing an ITD mutation (Ba/F3-ITD cells) or D835Y (Ba/F3 D835Y cells) point mutations, which lead to constitutively functional activation of the protein, were obtained from Bjørn Tore Gjertsen (Department of Clinical Science, Hematology Section, University of Bergen, Bergen, Norway). […]
Proliferation of cells was assessed using the tetrazolium salt WST-1 that is cleaved to chromogenic formazan dye by mitochondrial dehydrogenases in viable cells. […] The absorbance of the samples was measured by Spectramax Plus 384 Spectrophotometer (Molecular Devices Corp., Sunnyvale, Calif., USA) and the percentage of proliferation was calculated by using the following formula: (Arbitrary units (AU) of treated sample−AU of background control)/(AU of untreated sample−AU of background control).
Following 18 hours incubation, the DNA was harvested and radioactivity was assessed by liquid scintillation counting (Packard Microplate Scintillation and Luminescence counter, Perkin Elmer Life and Analytical Science, Inc., Waltham, USA).

[15] = target: c-Kit (D816H) (Homo sapiens, UniProt P10721, D816H); test: KinaseProfiler kinase activity assay; format: biochemical; design: purchased EMD Millipore Corp. (KinaseProfiler service)
Description: as §1
KinaseProfiler™ assays (EMD Millipore Corp. Billerica, Mass., USA) are […] with purified or partially-purified human kinases. Most of the KinaseProfiler™ assays are conducted in 20 mM MOPS, 1 mM EDTA, 0.01% Brij-35, 5% Glycerol, 0.1% b-mercaptoethanol, 1 mg/mL BSA. The assay involves the transfer of ^32P from γ-^32P-ATP to the target peptide, followed by washing and trapping of the labeled peptide on a filter. The concentration of γ-^32P-ATP used was at the established Km for ATP.

TEK, sequence (Q02763 23-1124): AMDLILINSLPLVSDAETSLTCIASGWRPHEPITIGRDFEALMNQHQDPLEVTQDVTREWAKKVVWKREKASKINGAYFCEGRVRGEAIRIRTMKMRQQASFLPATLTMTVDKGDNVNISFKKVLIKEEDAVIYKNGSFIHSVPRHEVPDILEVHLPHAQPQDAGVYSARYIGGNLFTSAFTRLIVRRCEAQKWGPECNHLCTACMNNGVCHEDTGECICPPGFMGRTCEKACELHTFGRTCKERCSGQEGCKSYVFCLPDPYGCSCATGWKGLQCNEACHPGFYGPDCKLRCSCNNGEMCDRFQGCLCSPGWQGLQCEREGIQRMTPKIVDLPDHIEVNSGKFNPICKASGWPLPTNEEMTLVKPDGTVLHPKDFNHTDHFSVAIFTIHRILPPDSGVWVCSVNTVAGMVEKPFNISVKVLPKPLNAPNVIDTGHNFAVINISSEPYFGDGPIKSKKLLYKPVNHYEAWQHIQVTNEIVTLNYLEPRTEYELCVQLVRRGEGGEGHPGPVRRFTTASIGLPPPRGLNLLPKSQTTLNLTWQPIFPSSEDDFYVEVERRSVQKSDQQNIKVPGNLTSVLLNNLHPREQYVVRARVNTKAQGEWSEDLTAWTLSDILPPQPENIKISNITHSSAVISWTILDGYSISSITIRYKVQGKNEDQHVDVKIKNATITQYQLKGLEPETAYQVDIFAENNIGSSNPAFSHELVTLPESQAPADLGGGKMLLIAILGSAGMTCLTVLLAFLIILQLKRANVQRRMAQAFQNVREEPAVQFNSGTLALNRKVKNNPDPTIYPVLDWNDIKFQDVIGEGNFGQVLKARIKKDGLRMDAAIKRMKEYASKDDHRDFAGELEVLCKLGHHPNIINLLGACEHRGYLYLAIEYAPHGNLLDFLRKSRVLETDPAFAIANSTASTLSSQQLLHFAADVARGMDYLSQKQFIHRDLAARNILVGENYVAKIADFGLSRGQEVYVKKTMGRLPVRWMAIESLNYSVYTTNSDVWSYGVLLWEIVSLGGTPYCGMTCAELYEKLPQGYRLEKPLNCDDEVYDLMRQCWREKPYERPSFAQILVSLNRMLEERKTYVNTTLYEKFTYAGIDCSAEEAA
Ret, sequence (P07949 29-1114): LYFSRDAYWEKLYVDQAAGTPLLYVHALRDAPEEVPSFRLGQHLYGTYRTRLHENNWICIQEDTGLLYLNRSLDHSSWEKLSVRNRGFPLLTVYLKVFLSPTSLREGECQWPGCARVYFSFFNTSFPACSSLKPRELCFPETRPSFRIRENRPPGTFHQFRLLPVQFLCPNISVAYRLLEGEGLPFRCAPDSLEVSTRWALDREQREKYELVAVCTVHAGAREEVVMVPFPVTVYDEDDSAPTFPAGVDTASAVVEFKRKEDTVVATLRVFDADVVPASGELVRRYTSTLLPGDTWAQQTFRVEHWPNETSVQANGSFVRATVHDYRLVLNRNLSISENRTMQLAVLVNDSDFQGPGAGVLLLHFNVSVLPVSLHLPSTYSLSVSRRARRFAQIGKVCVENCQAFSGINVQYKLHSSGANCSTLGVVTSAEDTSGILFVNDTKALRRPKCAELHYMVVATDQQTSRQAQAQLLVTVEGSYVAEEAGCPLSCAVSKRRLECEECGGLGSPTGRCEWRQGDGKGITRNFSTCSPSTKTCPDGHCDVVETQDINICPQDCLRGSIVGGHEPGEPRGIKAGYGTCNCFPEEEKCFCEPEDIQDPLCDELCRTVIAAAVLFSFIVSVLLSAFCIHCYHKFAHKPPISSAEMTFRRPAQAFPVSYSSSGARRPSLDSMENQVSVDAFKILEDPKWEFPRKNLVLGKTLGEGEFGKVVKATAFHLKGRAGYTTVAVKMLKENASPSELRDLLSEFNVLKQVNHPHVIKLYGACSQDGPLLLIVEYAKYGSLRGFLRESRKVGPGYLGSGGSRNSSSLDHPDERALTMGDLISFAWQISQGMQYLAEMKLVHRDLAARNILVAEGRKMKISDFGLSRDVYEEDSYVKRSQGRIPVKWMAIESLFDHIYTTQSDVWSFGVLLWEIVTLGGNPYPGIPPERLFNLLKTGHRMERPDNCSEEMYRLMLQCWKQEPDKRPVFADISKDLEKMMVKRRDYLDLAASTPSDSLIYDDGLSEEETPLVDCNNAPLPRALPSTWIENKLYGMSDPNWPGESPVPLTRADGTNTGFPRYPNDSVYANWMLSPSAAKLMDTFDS
Ret (V804L), sequence (P07949 29-1114 V804L): as the sequence (P07949 29-1114) above, with V776L counted along it
Stk10, sequence (O94804 whole entry): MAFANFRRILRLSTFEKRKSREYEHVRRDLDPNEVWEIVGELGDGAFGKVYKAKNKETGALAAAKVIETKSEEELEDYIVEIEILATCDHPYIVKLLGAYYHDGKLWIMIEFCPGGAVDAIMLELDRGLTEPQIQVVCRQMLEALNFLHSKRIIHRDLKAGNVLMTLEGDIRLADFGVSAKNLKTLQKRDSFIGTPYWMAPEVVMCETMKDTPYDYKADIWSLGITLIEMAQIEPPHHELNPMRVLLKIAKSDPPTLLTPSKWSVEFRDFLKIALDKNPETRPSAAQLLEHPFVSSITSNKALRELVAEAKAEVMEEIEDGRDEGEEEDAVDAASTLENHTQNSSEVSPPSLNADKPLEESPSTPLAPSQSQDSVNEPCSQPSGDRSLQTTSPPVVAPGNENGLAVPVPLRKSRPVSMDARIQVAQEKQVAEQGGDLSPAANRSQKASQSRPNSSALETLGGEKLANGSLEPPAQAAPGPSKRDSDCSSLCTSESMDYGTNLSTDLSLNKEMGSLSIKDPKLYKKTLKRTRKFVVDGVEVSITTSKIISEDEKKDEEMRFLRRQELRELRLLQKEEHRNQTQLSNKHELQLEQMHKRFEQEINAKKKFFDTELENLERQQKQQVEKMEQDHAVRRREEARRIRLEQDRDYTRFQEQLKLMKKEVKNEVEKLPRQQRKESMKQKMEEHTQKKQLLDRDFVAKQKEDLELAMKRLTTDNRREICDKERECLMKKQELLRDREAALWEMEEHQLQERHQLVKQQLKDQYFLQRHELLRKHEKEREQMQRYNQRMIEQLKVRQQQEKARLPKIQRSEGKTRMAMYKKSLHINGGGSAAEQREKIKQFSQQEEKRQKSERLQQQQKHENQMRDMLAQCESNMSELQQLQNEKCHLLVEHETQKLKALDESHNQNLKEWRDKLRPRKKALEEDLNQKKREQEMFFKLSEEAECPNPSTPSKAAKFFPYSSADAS
T1 sequence (P10721 26-976 V560G): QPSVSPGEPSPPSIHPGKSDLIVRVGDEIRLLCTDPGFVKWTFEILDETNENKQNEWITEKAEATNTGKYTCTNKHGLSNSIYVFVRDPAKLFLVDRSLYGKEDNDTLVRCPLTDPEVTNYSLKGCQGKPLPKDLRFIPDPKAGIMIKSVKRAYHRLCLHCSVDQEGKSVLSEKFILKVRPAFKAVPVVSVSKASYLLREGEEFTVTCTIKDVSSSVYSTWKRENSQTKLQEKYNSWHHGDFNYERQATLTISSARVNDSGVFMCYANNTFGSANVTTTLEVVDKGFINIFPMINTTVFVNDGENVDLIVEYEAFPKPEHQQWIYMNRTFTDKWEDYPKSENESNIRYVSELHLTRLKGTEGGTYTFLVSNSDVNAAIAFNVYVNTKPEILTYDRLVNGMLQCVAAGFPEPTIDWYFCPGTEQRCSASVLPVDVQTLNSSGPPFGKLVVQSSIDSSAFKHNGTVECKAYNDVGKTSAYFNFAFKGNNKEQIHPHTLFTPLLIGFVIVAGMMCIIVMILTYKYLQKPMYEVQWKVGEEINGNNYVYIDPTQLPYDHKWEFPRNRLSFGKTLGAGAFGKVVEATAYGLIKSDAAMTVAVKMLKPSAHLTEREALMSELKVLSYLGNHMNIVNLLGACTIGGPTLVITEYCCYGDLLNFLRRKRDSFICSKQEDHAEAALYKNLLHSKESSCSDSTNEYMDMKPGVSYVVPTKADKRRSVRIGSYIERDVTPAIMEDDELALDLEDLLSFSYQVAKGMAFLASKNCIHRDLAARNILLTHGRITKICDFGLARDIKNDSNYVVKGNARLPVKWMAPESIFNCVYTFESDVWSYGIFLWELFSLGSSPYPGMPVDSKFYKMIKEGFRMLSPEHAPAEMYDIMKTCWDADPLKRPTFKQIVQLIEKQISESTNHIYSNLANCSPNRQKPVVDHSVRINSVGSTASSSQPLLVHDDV
c-Kit (D816H), sequence (P10721 26-976 D816H): as the sequence (P10721 26-976 V560G) above, with G535V, D791H counted along it
Yes, sequence (P07947 whole entry): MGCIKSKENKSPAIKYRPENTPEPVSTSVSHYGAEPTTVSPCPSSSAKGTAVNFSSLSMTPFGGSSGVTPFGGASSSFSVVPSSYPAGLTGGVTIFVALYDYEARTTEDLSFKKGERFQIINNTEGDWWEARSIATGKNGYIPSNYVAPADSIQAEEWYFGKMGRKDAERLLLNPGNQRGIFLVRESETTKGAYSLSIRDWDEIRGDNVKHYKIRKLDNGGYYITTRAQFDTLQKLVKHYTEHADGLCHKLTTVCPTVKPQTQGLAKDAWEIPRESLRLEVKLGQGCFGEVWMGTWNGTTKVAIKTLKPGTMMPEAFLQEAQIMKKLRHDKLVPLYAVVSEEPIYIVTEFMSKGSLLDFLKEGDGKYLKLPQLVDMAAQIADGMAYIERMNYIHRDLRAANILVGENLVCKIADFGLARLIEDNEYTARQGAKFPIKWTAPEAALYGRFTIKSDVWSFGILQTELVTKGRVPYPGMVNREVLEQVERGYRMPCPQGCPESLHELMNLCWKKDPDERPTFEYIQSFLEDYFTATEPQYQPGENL
Ret (V804M), sequence (P07949 29-1114 V804M): as the sequence (P07949 29-1114) above, with V776M counted along it

What does the source list for `Nc1nc(Nc2ccc3c(c2)CC[C@@H](N2CCCC2)CC3)nn1-c1cc2c(nn1)-c1ccccc1CCC2` [Compound A, 1-(6,7-dihydro-5H-benzo[6,7]cyclohepta[1,2-c]pyridazine-3-yl)-N^3-(7-(S)-(pyrrolidin-1-yl)-6,7,8,9-tetrahydro-5H-benzo[7]annulene-2-yl)-1H-1,2,4-triazole-3,5-diamine]?
inhibition of T315I mutated CML in vivo (tumor volume) [1]: potentially inhibits; pIC50 [2]: 7.35; IC50 [3]: 22 nM; IC50 [4]: 40 nM; IC50 [5]: 38 nM and 22 nM; IC50 [6]: 21 nM; IC50 [7]: 13 nM; IC50 [8]: 32 nM; IC50 [9]: 43 nM; IC50 [10]: 41 nM; IC50 [11]: 122 nM; IC50 [12]: 11 nM; IC50 [13]: 30 nM and 41 nM; cell death in proliferation assays [14]: all cells are dead; pIC50 [15]: 8.10
